Experimental data taken from article PMC3038857, “Using Nuclear Receptor Activity to Stratify Hepatocarcinogens” (PLoS ONE, 2011).
Like-named read-outs stand apart in the source and are kept apart here.

Legend:
[1] = tested on: Mouse Liver; settings: ref ToxRefDB, cited from earlier work
[2] = target: T1, ESRRA (estrogen-related receptor alpha) (Homo sapiens, UniProt P11474); assay: ATG_ERRa_TRANS: Factorial reporter gene assay (HepG2); type: cell-based; settings: scale not given, looks like -log10 of molar active concentration, 0 = no activity
T1 construct: expressed in transfected cells; host or cells: HepG2
T1 sequence (P11474 1-423): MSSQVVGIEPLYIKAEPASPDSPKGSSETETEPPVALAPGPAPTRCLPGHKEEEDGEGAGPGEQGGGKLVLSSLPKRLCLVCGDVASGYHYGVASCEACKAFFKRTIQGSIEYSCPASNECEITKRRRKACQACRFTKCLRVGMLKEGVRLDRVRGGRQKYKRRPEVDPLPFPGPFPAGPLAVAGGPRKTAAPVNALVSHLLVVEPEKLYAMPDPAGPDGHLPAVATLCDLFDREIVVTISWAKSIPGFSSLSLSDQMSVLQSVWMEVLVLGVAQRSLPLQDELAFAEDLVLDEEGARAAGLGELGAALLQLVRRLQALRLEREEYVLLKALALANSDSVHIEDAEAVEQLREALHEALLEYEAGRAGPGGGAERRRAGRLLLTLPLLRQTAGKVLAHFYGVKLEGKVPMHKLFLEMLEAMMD
Experimental: (§1) A multiple reporter transcription unit (MRTU) library consisting of 48 transcription factor binding sites was transfected into the HepG2 human liver hepatoma cell line. In addition to the cis-acting reporter genes (CIS), a modification of the approach was used to generate a trans-system (TRANS) with a mammalian one-hybrid assay consisting of an additional 25 MRTU library reporting the activity of nuclear receptor super-family members. […] These assays were performed by Attagene Inc. (Morrisville NC) under contract to EPA.
(§2) In addition to the cis-acting reporter genes (CIS), a modification of the approach was used to generate a trans-system (TRANS) with a mammalian one-hybrid assay consisting of an additional 25 MRTU library reporting the activity of nuclear receptor super-family members. […] Chemicals were then tested in the CIS and TRANS assays at seven concentrations starting at the MTC and followed by three-fold serial dilutions. These assays were performed by Attagene Inc. (Morrisville NC) under contract to EPA. Detailed description of the methods, data and analysis methods for this dataset will be presented in a separate publication.

[3] = tested on: Mouse Liver; settings: ref ToxRefDB, cited from earlier work; remark: listed apart in the source
[4] = target: T2, ESRRG (estrogen-related receptor gamma) (Homo sapiens, UniProt P62508); assay: ATG_ERRg_TRANS: Factorial reporter gene assay (HepG2); type: cell-based; parameters: scale not given here
T2 construct: expressed in transfected cells; host or cells: HepG2
T2 sequence (P62508 1-458): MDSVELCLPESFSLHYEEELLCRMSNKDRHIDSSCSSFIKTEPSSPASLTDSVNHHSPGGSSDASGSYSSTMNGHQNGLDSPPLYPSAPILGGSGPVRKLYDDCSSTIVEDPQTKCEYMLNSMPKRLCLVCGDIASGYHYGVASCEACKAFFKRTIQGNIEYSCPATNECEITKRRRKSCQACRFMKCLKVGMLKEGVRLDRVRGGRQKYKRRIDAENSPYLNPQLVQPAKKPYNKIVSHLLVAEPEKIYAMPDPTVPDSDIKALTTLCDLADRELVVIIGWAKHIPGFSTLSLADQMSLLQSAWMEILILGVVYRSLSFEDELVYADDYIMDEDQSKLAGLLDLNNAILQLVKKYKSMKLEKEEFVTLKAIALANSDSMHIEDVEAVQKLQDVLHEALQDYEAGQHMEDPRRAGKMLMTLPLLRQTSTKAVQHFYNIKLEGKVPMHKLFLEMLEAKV
Experimental: as §1, §2

[5] = target: T3, CAR (NR1I3) (Homo sapiens, UniProt Q14994); assay: NVS_NR_hCAR: Human CAR CITCO (cell-free HTS); type: binding
T3 sequence (Q14994 1-352): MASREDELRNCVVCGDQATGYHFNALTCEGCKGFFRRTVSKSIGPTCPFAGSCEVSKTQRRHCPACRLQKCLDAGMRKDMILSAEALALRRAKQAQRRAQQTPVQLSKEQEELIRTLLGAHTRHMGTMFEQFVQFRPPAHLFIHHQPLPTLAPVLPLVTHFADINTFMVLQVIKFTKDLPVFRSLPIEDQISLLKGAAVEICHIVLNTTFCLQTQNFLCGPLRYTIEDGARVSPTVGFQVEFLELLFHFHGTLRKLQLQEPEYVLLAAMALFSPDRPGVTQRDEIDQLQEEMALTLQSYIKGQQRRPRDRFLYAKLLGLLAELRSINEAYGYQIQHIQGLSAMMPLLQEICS
Text: (§3) These are a collection of biochemical assays measuring binding constants and enzyme inhibition values. Chemicals were initially screened at a single concentration in duplicate wells at a concentration of 10 [drawing 63] M for cytochrome P-450 assays and 25 [drawing 64] M for all others. […] These assays were run by Caliper Life Sciences (Hanover, MD) under contract to EPA. Short assay descriptions are available at: http://www.caliperls.com/products/contract-research/in-vitro/.
(§4) Cell-free HTS Assays: A collection of biochemical assays measuring binding constants and enzyme inhibition values. […] These assays were run by Caliper Life Sciences (Hanover, MD) under contract to EPA. Short assay descriptions are available at http://www.caliperls.com/products/contract-research/in-vitro/. Values for all endpoints were imported into GeneData Screener (Basel, Switzerland) and normalised to solvent controls from the same plate as the tested compounds and expressed as percent of neutral control. Concentration-response curves were fit in GeneData Screener (Basel, Switzerland) Condeseo module using the Hill equation and AC50 values were determined. […] Detailed description of the methods, data and analysis methods for this dataset are described in a separate publication.

[6] = target: T4, FXR (NR1H4) (Homo sapiens, UniProt Q96RI1); assay: ATG_FXR_TRANS: Factorial reporter gene assay (HepG2); type: cell-based; parameters: expressed in transfected cells; host or cells: HepG2; scale not given here; settings: scale not given, looks like -log10 of molar active concentration, 0 = no activity
T4 sequence (Q96RI1 1-486): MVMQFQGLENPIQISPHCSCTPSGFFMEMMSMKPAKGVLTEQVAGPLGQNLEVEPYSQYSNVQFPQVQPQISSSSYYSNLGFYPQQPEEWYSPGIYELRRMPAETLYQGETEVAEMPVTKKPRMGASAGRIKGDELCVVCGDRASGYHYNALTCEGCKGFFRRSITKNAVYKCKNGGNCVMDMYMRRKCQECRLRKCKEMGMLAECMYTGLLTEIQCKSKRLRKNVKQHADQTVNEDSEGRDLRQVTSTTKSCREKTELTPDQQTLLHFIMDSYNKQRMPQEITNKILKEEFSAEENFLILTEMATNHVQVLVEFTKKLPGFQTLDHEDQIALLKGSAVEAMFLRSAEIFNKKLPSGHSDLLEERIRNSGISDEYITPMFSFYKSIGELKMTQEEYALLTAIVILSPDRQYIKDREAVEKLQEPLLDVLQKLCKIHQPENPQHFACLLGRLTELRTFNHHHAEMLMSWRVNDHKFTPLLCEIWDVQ
Experimental: as §1, §2

[7] = target: T4, FXR (NR1H4); assay: NVS_NR_hFXR: Human FXR CDCA (cell-free HTS); type: binding; settings: scale not given, looks like -log10 of molar active concentration, 0 = no activity
Text: as §3, §4

[8] = mouse chronic study, liver, preneoplastic lesion, coded 6 / Inf / 0, code not explained here
[9] = mouse chronic study, liver, any lesion, coded 6 / Inf / 0, code not explained here
[10] = HepG2, scale not given, looks like -log10 of molar active concentration, 0 = no activity
[11] = scale not given, looks like -log10 of molar active concentration, 0 = no activity

Structure (SMILES) | ATG_ERRa_TRANS [2] | CHR_Mouse_Liver_1_AnyLesion [3, 9] | ATG_ERRg_TRANS [4, 10] | NVS_NR_hCAR [5, 11] | also measured
CC(C)N1C(=O)c2ccccc2NS1(=O)=O [r37] | 0 | 6 | 0 | – | CHR_Mouse_Liver_2_PreneoplasticLesion [1, 8]: 6
Cc1c(COC(=O)C2C(/C=C(\Cl)C(F)(F)F)C2(C)C)cccc1-c1ccccc1 (centres unmarked) [r39] | – | 6 | – | 0 | CHR_Mouse_Liver_2_PreneoplasticLesion [1, 8]: 6; ATG_FXR_TRANS [6]: 0; NVS_NR_hFXR [7]: 0
CC(C)(c1ccc(O)cc1)c1ccc(O)cc1 [r40] | 0 | 6 | 0 | 6.955 | –
O=C(Nc1ccccc1-c1ccc(Cl)cc1)c1cccnc1Cl [r42] | 0 | 6 | 0 | 0 | –
CC(C)N1C(=O)N(c2ccccc2)CS/C1=N\C(C)(C)C [r45] | 0 | 6 | 0 | 0 | CHR_Mouse_Liver_2_PreneoplasticLesion [1, 8]: 6
C=CCOC(=O)C(C)(C)OC(=O)c1cc(-n2c(=O)cc(C(F)(F)F)n(C)c2=O)ccc1Cl [r47] | 0 | 6 | 0 | 0 | CHR_Mouse_Liver_2_PreneoplasticLesion [1, 8]: 6
CCC(C)Nc1c([N+](=O)[O-])cc(C(C)(C)C)cc1[N+](=O)[O-] (centres unmarked) [r48] | 0 | – | 0 | – | –
CCSC(=O)N(CC(C)C)CC(C)C [r49] | 0 | 6 | 0 | 0 | –
O=C1C2CC=CCC2C(=O)N1SC(Cl)(Cl)Cl (centres unmarked) [r51] | 0 | – | 0 | 0 | –
CNC(=O)Oc1cccc2ccccc12 [r52] | – | 6 | – | 0 | CHR_Mouse_Liver_2_PreneoplasticLesion [1, 8]: 6; ATG_FXR_TRANS [6]: 0; NVS_NR_hFXR [7]: 0
CC1=C(C(=O)Nc2ccccc2)SCCO1 [r53] | 0 | 6 | 0 | – | ATG_FXR_TRANS [6]: 0; NVS_NR_hFXR [7]: 0
CCOC(=O)C(Cl)Cc1cc(-n2nc(C)n(C(F)F)c2=O)c(F)cc1Cl (centres unmarked) [r54] | – | 6 | – | 0 | ATG_FXR_TRANS [6]: 0; NVS_NR_hFXR [7]: 0
Nc1cnn(-c2ccccc2)c(=O)c1Cl [r56] | – | – | – | 0 | –
COc1cc(Cl)c(OC)cc1Cl [r57] | 0 | – | 0 | – | –
N#Cc1c(Cl)c(Cl)c(Cl)c(C#N)c1Cl [r58] | – | – | – | 0 | ATG_FXR_TRANS [6]: 0; NVS_NR_hFXR [7]: 0
CC(C)OC(=O)Nc1cccc(Cl)c1 [r59] | 0 | 6 | 0 | – | CHR_Mouse_Liver_2_PreneoplasticLesion [1, 8]: 6; ATG_FXR_TRANS [6]: 0; NVS_NR_hFXR [7]: 0
COc1nc(C)nc(NC(=O)NS(=O)(=O)c2ccccc2Cl)n1 [r62] | 0 | – | 0 | 0 | –
COc1nc(C)nc(NC(=O)NS(=O)(=O)c2ccccc2Cl)n1 [r63] | 0 | – | 0 | 0 | –
Cc1ccccc1CO[C@@H]1C[C@@]2(C(C)C)CC[C@]1(C)O2 [r64] | – | 6 | – | 0 | CHR_Mouse_Liver_2_PreneoplasticLesion [1, 8]: 6
C#CCC1=C(C)[C@H](OC(=O)[C@H]2[C@H](C=C(C)C)C2(C)C)CC1=O [r249] | – | – | – | – | CHR_Mouse_Liver_1_AnyLesion ([3]; mouse, chronic study): 6
CCCC1COC(Cn2cncn2)(c2ccc(Cl)cc2Cl)O1 (centres unmarked) [r262] | – | – | – | – | CHR_Mouse_Liver_2_PreneoplasticLesion ([1]; mouse, chronic study): 6; CHR_Mouse_Liver_1_AnyLesion ([3]; mouse, chronic study): 6
CC(C)=CC1C(C(=O)OCc2coc(Cc3ccccc3)c2)C1(C)C (centres unmarked) [r280] | – | – | – | – | CHR_Mouse_Liver_2_PreneoplasticLesion ([1]; chronic study, mouse liver): 6; CHR_Mouse_Liver_1_AnyLesion ([3]; chronic study, mouse liver): 6
CCc1nn(C)c(C(=O)NCc2ccc(C(C)(C)C)cc2)c1Cl [r291] | – | – | – | – | ATG_ERRg_TRANS ([4]; HepG2 reporter): 5.301
CCc1cccc(C)c1N(C(=O)CCl)C(C)COC (centres unmarked) [row 208] | – | – | – | – | NVS_NR_hCAR [5]: 4.462
CC(C)Oc1cc(-n2nc(C(C)(C)C)oc2=O)c(Cl)cc1Cl [row 225] | – | – | – | – | CHR_Mouse_Liver_2_PreneoplasticLesion ([1]; chronic mouse study, liver): 6; CHR_Mouse_Liver_1_AnyLesion ([3]; chronic mouse study, liver): 6
